In US5356887A, “Pharmaceutical compositions containing insoluble calcium salts of amino-hydroxybutylidene bisphoshonic acids” (Merck & Co., Inc., priority 1993, dated 1994):
Where a name gives a salt, the structure may show the parent alone. Read-outs that look alike come from different tables or passages of the source.

How the values were obtained:
immobilized femur [1] = conditions: days -4 and -3, 10 days after surgery, n = 5
Experimental: On day 0 all rats underwent surgery whereby the sciatic nerve of the right hind limb was severed. Ten days following immobilization surgery, the rats were sacrificed and hind limbs removed. The femora were defleshed, maximum femoral length of both femora measured and then placed in a muffle furnace at 700° C. for 24 hours.
(§1) mg Diff = difference in ash weight between the intact femur and the
(§2) se = standard error of the mean
(§3) % Bone Loss = ash weight difference between the intact femur and the
(§4) immobilized femur divided by the ash weight of the intact femur

immobilized femur [2] = conditions: days -2 and -1, 10 days after surgery, n = 5
Experimental: Immobilization was produced by unilateral hind limb sciatic neurectomy. Ten days after surgery the rats were sacrificed, hind limbs removed, and the femora ashed at 700° C. for 24 hours. Ash weight was determined and the difference between the ash weight of the intact limb and immobilized limb calculated and expressed as the mg difference. Per cent difference was calculated as the % difference in ash weight between the intact and immobilized limb.
as §1, §2, §3, §4

rat paw = assay: Local Irritation Study/Rat Paw Licking Response Test; conditions: suspension vs solution of the (ABP)Na salt
[3] = in vivo
[4] = 2 × 0.1 mg P/kg s.c., monocalcium salt
[5] = 2 × 1.0 mg P/kg s.c., monocalcium salt
[6] = 0.0001 mg P/kg s.c., monocalcium salt
[7] = 0.001 mg P/kg s.c., monocalcium salt
[8] = 0.01 mg P/kg s.c., monocalcium salt
[9] = 0.1 mg P/kg s.c., monocalcium salt
[10] = 2 × 0.1 mg P/kg s.c., monosodium salt
[11] = 0.0001 mg P/kg s.c., monosodium salt
[12] = 0.001 mg P/kg s.c., monosodium salt
[13] = 0.01 mg P/kg s.c., monosodium salt
[14] = 0.1 mg P/kg s.c., monosodium salt

NCCCC(O)(P(=O)(O)O)P(=O)(O)O [(ABP)2 Ca, di[(4-amino-1-hydroxybutylidene)-1,1-bisphosphonic acid] monocalcium salt]
% Bone Loss (immobilized femur [1]; [4]): 1.93%
mg Diff (difference in ash weight between the intact femur and the immobilized femur) (immobilized femur [1]; [4]): 6.50 mg
% Bone Loss (immobilized femur [1]; [5]): 2.09%
mg Diff (difference in ash weight between the intact femur and the immobilized femur) (immobilized femur [1]; [5]): 7.38 mg
% Bone Loss (immobilized femur [2]; [6]): 8.93%
mg Diff (difference in ash weight between the intact femur and the immobilized femur) (immobilized femur [2]; [6]): 29.64 mg
% Bone Loss (immobilized femur [2]; [7]): 6.58%
mg Diff (difference in ash weight between the intact femur and the immobilized femur) (immobilized femur [2]; [7]): 22.00 mg
% Bone Loss (immobilized femur [2]; [8]): 3.64%
mg Diff (difference in ash weight between the intact femur and the immobilized femur) (immobilized femur [2]; [8]): 12.62 mg
% Bone Loss (immobilized femur [2]; [9]): 4.14%
mg Diff (difference in ash weight between the intact femur and the immobilized femur) (immobilized femur [2]; [9]): 11.32 mg
Paw licking responses and tolerability, in words (rat paw): induced a lower number of responses and were better tolerated than the solution of the (ABP)Na salt

NCCCC(O)(P(=O)(O)O)P(=O)(O)O [(ABP)3 Ca4, tri[(4-amino-1-hydroxybutylidene)-1,1-bisphosphonic acid] tetracalcium salt]
% Bone Loss (immobilized femur [1]; 2 × 0.1 mg P/kg s.c.): 2.48%
mg Diff (difference in ash weight between the intact femur and the immobilized femur) (immobilized femur [1]; 2 × 0.1 mg P/kg s.c.): 7.68 mg
% Bone Loss (immobilized femur [1]; 2 × 1.0 mg P/kg s.c.): 1.22%
mg Diff (difference in ash weight between the intact femur and the immobilized femur) (immobilized femur [1]; 2 × 1.0 mg P/kg s.c.): 3.94 mg
Paw licking responses and tolerability, in words (rat paw): induced a lower number of responses and were better tolerated than the solution of the (ABP)Na salt

NCCCC(O)(P(=O)(O)O)P(=O)(O)O [(ABP)Ca, [(4-amino-1-hydroxybutylidene)-1,1-bisphosphonic acid] monocalcium salt]
% Bone Loss (immobilized femur [2]; [6]): 9.34%
mg Diff (difference in ash weight between the intact femur and the immobilized femur) (immobilized femur [2]; [6]): 28.70 mg
% Bone Loss (immobilized femur [2]; [7]): 7.69%
mg Diff (difference in ash weight between the intact femur and the immobilized femur) (immobilized femur [2]; [7]): 25.98 mg
% Bone Loss (immobilized femur [2]; [8]): 5.01%
mg Diff (difference in ash weight between the intact femur and the immobilized femur) (immobilized femur [2]; [8]): 16.72 mg
% Bone Loss (immobilized femur [2]; [9]): 4.12%
mg Diff (difference in ash weight between the intact femur and the immobilized femur) (immobilized femur [2]; [9]): 13.24 mg
Systemic release of ABP [3]: slow systemic release
Level of the drug in the bloodstream ([3]; sc): never very high

NCCCC(O)(P(=O)(O)O)P(=O)(O)O [(ABP)Na, (4-amino-1-hydroxybutylidene)-1,1-bisphosphonic acid monosodium salt, reference compound]
% Bone Loss (immobilized femur [1]; [10]): 4.68%
mg Diff (difference in ash weight between the intact femur and the immobilized femur) (immobilized femur [1]; [10]): 14.62 mg
% Bone Loss (immobilized femur [2]; [11]): 9.93%
mg Diff (difference in ash weight between the intact femur and the immobilized femur) (immobilized femur [2]; [11]): 31.14 mg
% Bone Loss (immobilized femur [2]; [12]): 5.95%
mg Diff (difference in ash weight between the intact femur and the immobilized femur) (immobilized femur [2]; [12]): 21.32 mg
% Bone Loss (immobilized femur [2]; [13]): 4.90%
mg Diff (difference in ash weight between the intact femur and the immobilized femur) (immobilized femur [2]; [13]): 18.72 mg
% Bone Loss (immobilized femur [2]; [14]): 4.15%
mg Diff (difference in ash weight between the intact femur and the immobilized femur) (immobilized femur [2]; [14]): 14.10 mg
Level of the drug in the bloodstream ([3]; iv): high level
